In article PMC9925730, “Controlled sequential in situ self-assembly and disassembly of a fluorogenic cisplatin prodrug for cancer theranostics” (Nature Communications, 2023):
Values joined by “and” are separate entries in the source; they are usually repeats but may differ in a detail not shown here. Identical values can stand only once.

Legend:
[1] = Blood analysis in healthy mice (blood count, biochemistry); format: in vivo; set-up: BUN / CRE / WBC / HGB / HCT / MCH / MCHC / MCV / RBC / ALT / AST / TP / T-Bil / Alb: unit not given here; conditions: for HGB: Supplementary Fig. 36, first HGB block; for ALT / AST / Alb / BUN / CRE / HCT / MCH / MCHC / MCV / PLT / RBC / T-Bil / TP / WBC: Supplementary Fig. 36
[2] = tested on: supercoiled pBR322 plasmid DNA; experiment: Ability to break DNA double strand (agarose gel electrophoresis); format: biochemical; conditions: 100 μM, 37 °C, 16 h
Description: Evaluation of the ability to break DNA double strand
by different species of Pt compounds. (a) Agarose gel electrophoresis of supercoiled
pBR322 plasmid DNA (10 ng/μL) after incubating with indicated conditions.
represents the linear DNA marker ladder (500-12000 bp); Lane i: DNA; Lane ii: DNA
+ GSH (2 mM); Lane iii: DNA + CDDP (100 μM); Lane iv: DNA + CDDP (100 μM)
+ GSH (2 mM); Lane v: DNA + P-CyPt (100 μM); Lane vi: DNA + P-CyPt (100 μM)
+ GSH (2 mM), Lane vii: DNA +P-CyPt (100 μM) + ALP (500 U/L), Lane viii: DNA
+P-CyPt (100 μM) + ALP (500 U/L) +GSH (2 mM); (b) Agarose gel electrophoresis
of supercoiled pBR322 plasmid DNA (20 ng/μL) after incubating with varying
concentrations of P-CyPt (0, 1, 2, 5, 10, 20, 50 and 100 μM) respectively) plus ALP
(500 U/L), followed by incubation with GSH (2 mM) in Tris buffer at 37 °C for 16 h.

[3] = Blood circulation half-life (ICP-OES of Pt); format: in vivo, mice
From the text: Scale bar: 100 μm. The occurrence of hepatotoxicity in […]-treated mice could be presumably owing to (1) the large size of […] (~160 nm) that caused a high liver uptake and (2) the fast release of cytotoxic cisplatin from the liver-resided […] by hepatic GSH that led to a high concentration of cisplatin in the liver. One representative experiment out of two is shown. 30 PBS CDDP Pt IV NP sP- Cy Pt 20 10 0 013 619 25 Days Supplementary Figure 34. Monitoring of the body weight of mice with orthotopic HepG2/Luc liver tumors following indicated treatments. […] Values denote mean ± s.d. (n = 4 independent animals). 120 CDDP Pt IV NP s […] 40 0 0 25510 2015 Time (h) Supplementary Figure 35. Examination of the blood circulation half-lives of […], and CDDP. Plots of the relative amount of Pt (%) in the blood after i.v. injection of […], and CDDP (at a dose of 2.25 mg kg-1 Pt) into healthy mice. Data are mean ± s.d. (n = 3 independent animals). […] 0.23 h). […] The residues were then diluted with 5 mL 2% HNO3 and 5% HCl solution, and the concentrations of Pt element were determined by ICP-OES, which were further applied to calculate the contents of Pt element in the blood. The plot of the percentage of Pt element remained in the blood versus injection time to yield the pharmacokinetic time. Urine and Faeces analysis. […] Urine and faeces were collected at 2 (for 0-2 h), 4 (for 2-4 h), 8 (for 4- 8 h) and 12 h (for […]), which were diluted in methanol and centrifuged at 3,600 × g for 10 min, followed by filtering via a 0.22 μm syringe filter. The solutions were analyzed by HPLC (660 nm detection) to characterize all the mCy-containing compounds. Using the established standard curves for […] Cy-COOH, the amount of each compound in the urine and faeces could be calculated, which were further applied to determine the percentage of them in the urine and faeces. The data were summarized in Supplementary Tables 5-8. […] Urine and faeces were collected and weighed. The urine and faeces were digested with concentrated HNO3 (65~70%) and HCl (36~38%) at 90 °C for 24 h. The solution was diluted to 5 mL 2% HNO3 and 5% HCl solution, and the concentration of Pt element was measured by ICP-OES, which was further applied to calculate the percentage of Pt in corresponding urine and faeces. The data were summarized in Supplementary Tables 9 and 10. 47

HeLa cells = experiment: Flow cytometry analysis of HeLa cell death (Annexin V-FITC/PI); format: cell-based, human; conditions: 20 μM 2 h, then blank medium 48 h
Description: Flow cytometric analysis of HeLa cell death. (a) Gating strategy applied for flow cytometric analysis. (b) Representative flow cytometric analysis of HeLa cells by Annexin V-FITC/PI staining. HeLa cells were treated with PBS, CDDP, PtIVNPs or P-CyPt (20 μM) for 2 h, washed with cold PBS for three times, and then continued incubation in refresh blank DMEM medium for another 48 h. The cells were then stained with the Annexin V-FITC/PI kit, and analyzed by flow cytometry. One representative experiment out of two is shown.
Flow cytometry analysis of HeLa cell death. Approximately 2×10^5 cells/well HeLa cells in 2 mL DMEM medium were seeded onto 6-well plates and allowed to grow overnight. The medium was replaced with 1 mL of fresh medium containing P-CyPt (20 μM), PtIVNPs (20 μM) and CDDP (20 μM), respectively. After 2 h incubation, medium was removed and cells were washed with PBS for three times. Then, cells were incubated with fresh medium for another 48 h to induce different levels of apoptosis.
After gentle washing with PBS (×1), the cells were detached from the plates with trypsin (500 μL per well), and the cell pellets were collected after centrifugation at 1000 161× g at 4 °C for 4 min. […] All assays were performed according to the manufacturer instructions, and the cell population was analyzed by annexin V-FITC and PI channels. […]

Structure (SMILES): [NH2][Pt]([NH2])([Cl])[Cl] [CDDP, cisplatin]
- HGB ([1]; individual mice): 90 (2×) and 67
- HGB ([1]; mean of 3 mice): 82.333
- ALT ([1]; individual mice): 45.502 and 43.964 and 66.025
- AST ([1]; individual mice): 126.05 and 97.802 and 100.507
- Alb ([1]; individual mice): 26.65 and 25.18 and 35.22
- BUN ([1]; individual mice): 18.956 and 37.908 and 23.94
- CRE ([1]; individual mice): 19.831 and 68.509 and 25.561
- HCT ([1]; individual mice): 35.4 and 40.2 and 41.2
- MCH ([1]; individual mice): 16.6 and 15.9 and 18.6
- MCHC ([1]; individual mice): 350 and 331 and 324
- MCV ([1]; individual mice): 51.5 and 49.5 and 51.3
- PLT ([1]; individual mice): 591 and 289 and 329
- RBC ([1]; individual mice): 7.14 and 6.54 and 6.58
- T-Bil ([1]; individual mice): 21.47 and 18.852 and 18.358
- TP ([1]; individual mice): 42.81 and 40.21 and 50.47
- WBC ([1]; individual mice): 1.9 and 1.2 and 1.6
- ALT ([1]; mean of 3 mice): 51.830
- AST ([1]; mean of 3 mice): 108.120
- Alb ([1]; mean of 3 mice): 29.017
- BUN ([1]; mean of 3 mice): 26.935
- CRE ([1]; mean of 3 mice): 37.967
- HCT ([1]; mean of 3 mice): 38.933
- MCH ([1]; mean of 3 mice): 17.033
- MCHC ([1]; mean of 3 mice): 335.000
- MCV ([1]; mean of 3 mice): 50.767
- PLT ([1]; mean of 3 mice): 403.000
- RBC ([1]; mean of 3 mice): 6.753
- T-Bil ([1]; mean of 3 mice): 19.560
- TP ([1]; mean of 3 mice): 44.497
- WBC ([1]; mean of 3 mice): 1.567
- effect on supercoiled pBR322 DNA ([2]; plus GSH (2 mM)): prevent its binding with the DNA double strand
- effect on supercoiled pBR322 DNA ([2]; without GSH): cannot obviously relax or break
- Relative Pt amount in blood ([3]; Time 0 h, individual mice): 93.8305 and 92.1406 and 114.029
- Relative Pt amount in blood ([3]; Time 0 h, mean of 3 mice): 100
- Relative Pt amount in blood ([3]; Time 0.5 h, individual mice): 57.2961 and 52.6288 and 39.5118
- Relative Pt amount in blood ([3]; Time 0.5 h, mean of 3 mice): 49.8122
- Relative Pt amount in blood ([3]; Time 1 h, individual mice): 22.492 and 12.6341 and 19.9651
- Relative Pt amount in blood ([3]; Time 1 h, mean of 3 mice): 18.3637
- Relative Pt amount in blood ([3]; Time 2 h, individual mice): 7.725 and 8.771 and 6.76
- Relative Pt amount in blood ([3]; Time 2 h, mean of 3 mice): 7.752
- Relative Pt amount in blood ([3]; Time 4 h, individual mice): 2.808 and 1.569 and 2.181
- Relative Pt amount in blood ([3]; Time 4 h, mean of 3 mice): 2.186
- Relative Pt amount in blood ([3]; Time 8 h, individual mice): 1.408 and 0.5955 and 1.521
- Relative Pt amount in blood ([3]; Time 8 h, mean of 3 mice): 1.175
- Relative Pt amount in blood ([3]; Time 12 h, individual mice): 1.746 and 1.28 and 0.8611
- Relative Pt amount in blood ([3]; Time 12 h, mean of 3 mice): 1.2956
- Relative Pt amount in blood ([3]; Time 24 h, individual mice): 1.634 and 0.8852 and 0.6518
- Relative Pt amount in blood ([3]; Time 24 h, mean of 3 mice): 1.057
- blood circulation half-life t1/2 ([3]; mice, i.v., 2.25 mg kg-1 Pt): 43.8 ± 2.4 min
- apoptosis population (HeLa cells): ~ 5.20%
